{"source": "patent US4851386A", "about": "“Method of treating precocious puberty” (Roussel Uclaf, priority 1979, dated 1989)", "key": {"[1]": {"test_system": "testicular steroidogensis", "test": "Inhibitory activity against testicular steroidogenesis in men in good health, single intranasal administration", "format": "in vivo", "details": "for seric steroid/testosterone level on the fourth day after administration: fourth day (until 6th day)", "procedure": "The inhibitory activity of [D Ser (tbu)^6 des GlyNH2^10 ] LH-RH ethylamide (described in German application Ser. No. 2,438,350) against testicular steroidogensis in men in good health was determined on men in good health aged 30 to 40 years. The said product was administered intranasally at a dose of 500 μg in a few drops of distilled water at 8 A.M. on the third day of the test. For 2 days prior to the treatment and for 6 days after the treatment, samples of blood were taken daily at 8 A.M., 3 P.M. and 10 P.M. On the day of administration of the LH--RH agonist, blood samples were taken at 11 A.M. and 6 P.M.\nThe seric concentrations of LH and FSH were measured by radioimmuno-logic dosages with double antibodies and the antibodies for measuring LH and FSH were furnished by the National Pituitary Agency of N.I.H. in Bethesda, Md. The seric concentrations of steroids was measured by radioimmuno-logic dosages in which one ml of serum was extracted with ether and the steroids were separated on a LH-20 column before measuring with radioimmuno-logic dosages. The radioimmuno-logic dosage results were determined by a program derived from model II of Rodbard et al [Second Karolinska Symposium on Research Methods in Reproductive Endrocinology, Diczfalusky Editor, Copenhague (1970), p. 79-103]. The statistical significance was determined by the \"multiple level test\" of Duncan-Kramer [Kramer, Biometrics, Vol 12 (1956), p. 307]. The results are shown in the graphs on sheet 1 of the Figures filed herewith."}, "[2]": {"test_system": "ovarian steroidogenosis", "test": "Inhibitory activity on ovarian steroidogenesis in women with normal menstrual cycles", "format": "in vivo", "procedure": "The inhibitory activity of [D Ser (tbu)^6 des GlyNH2^10 ] LH-RH ethylamide on ovarian steroidogenosis in women was determined on 6 women aged 26 to 35 years with normal and regular menstrual cycles and without prior endocrinal or gynecological problems. The study was conducted for 6 consecutive cycles consisting of 2 pretreatment cycles, 2 treatment cycles and 2 post-treatment cycles. Two drops of a solution containing 500 μg of [D Ser (tbu)^6 des GlyNH2^10 ] LH--RH ethylamide were deposited on each nostril at 8 A.M. and 5 P.M. of a day between the 4th and 9th day after the peak of LH-day 0. Daily blood samples were taken between 4 and 6 P.M. to measure seric levels of LH, FSH, progesterone and estradiol which were determined by radioimmuno-logictests with double antibodies. The antibodies to measure LH and FSH were furnished by the National Pituitory Agency of N.I.H. of Bethesda, Md.\nEstradiol and progesterone were measured with highly specific antibodies developed against 7-(O-carboxymethyl)-oxime of estradiol and 12-(O-carboxymethyl)-oxime of progesterone, respectively [3H] 17β-estradiol and ^125 I-progesterone-12-[O-carboxymethyl)-oxime]used as tracers. The serum was extracted with benzene and the steroids were separated with a LH-20 column before the determination. The radioimmunological results were exploited by the program derived from model II of Rodbard and Lewald as in Example 1 and the statistical significance was measured by the multiple level test of Ducan-Kramer of Example 1. The results are shown in the graphs of sheets 3 to 5 of the Figures."}, "[3]": {"details": "human, single intranasal dose 500 μg"}, "[4]": {"details": "500 μg intranasal at 8 A.M. and 5 P.M. of one day in luteal phase, typical subject (sheet 3)"}}, "data": [{"compound": "CCNC(=O)[C@@H]1CCCN1C(=O)[C@H](CCCNC(=N)N)NC(=O)[C@H](CC(C)C)NC(=O)[C@@H](COC(C)(C)C)NC(=O)[C@H](Cc1ccc(O)cc1)NC(=O)[C@H](CO)NC(=O)[C@H](Cc1c[nH]c2ccccc12)NC(=O)[C@H](Cc1c[nH]cn1)NC(=O)[C@@H]1CCC(=O)N1", "note": "[[D Ser (tbu)^6 des GlyNH2^10] LH-RH ethylamide]", "values": [{"measurement": "duration of the drop of seric levels of testicular steroids (testosterone and precursors)", "setting": "[1]; [3]", "value": 3, "unit": "days"}, {"measurement": "seric steroid/testosterone level on the fourth day after administration", "setting": "[1]; [3]", "value": "return to normal levels"}, {"measurement": "seric steroid/testosterone level on the fourth day after administration", "setting": "[1]; human, single intranasal dose 500 μg, listed as [D Ser (tbu)^6 des Gly NH2^10 ] LH-RH ethylamide", "value": "the level returned to normal"}, {"measurement": "overall effect on testicular steroidogenesis", "setting": "[1]; man, intranasal 500 μg", "value": "inhibition of testicular steroidogenesis"}, {"measurement": "reduction of seric levels of progesterone compared to controls, first cycle of treatment", "setting": "[2]; [4]", "value": 13, "unit": "%"}, {"measurement": "reduction of seric levels of progesterone compared to controls, second cycle of treatment", "setting": "[2]; [4]", "value": 34, "unit": "%"}, {"measurement": "progesterone level of post-treatment cycles, pretreatment cycles = 100%", "setting": "[2]; 12 cycles", "value": 99, "unit": "%"}, {"measurement": "progesterone level of treatment cycles, pretreatment cycles = 100%", "setting": "[2]; 12 cycles", "value": 46, "unit": "%"}, {"measurement": "level of progesterone reduced by, compared to the controls", "setting": "[2]; 12 cycles, sheet 5", "value": 46, "unit": "%"}, {"measurement": "course of seric progesterone level in the 2 cycles of treatment", "setting": "[2]; sheet 4, return to normal for the 2 post-treatment cycles", "value": "accelerated diminution"}]}]}
